In this assay the target is T1, Recombinant human CETP (Homo sapiens, UniProt P11597).
T1 construct: made in house; host or cells: CHO cells (secreted into conditioned medium)
T1 sequence (P11597 18-493): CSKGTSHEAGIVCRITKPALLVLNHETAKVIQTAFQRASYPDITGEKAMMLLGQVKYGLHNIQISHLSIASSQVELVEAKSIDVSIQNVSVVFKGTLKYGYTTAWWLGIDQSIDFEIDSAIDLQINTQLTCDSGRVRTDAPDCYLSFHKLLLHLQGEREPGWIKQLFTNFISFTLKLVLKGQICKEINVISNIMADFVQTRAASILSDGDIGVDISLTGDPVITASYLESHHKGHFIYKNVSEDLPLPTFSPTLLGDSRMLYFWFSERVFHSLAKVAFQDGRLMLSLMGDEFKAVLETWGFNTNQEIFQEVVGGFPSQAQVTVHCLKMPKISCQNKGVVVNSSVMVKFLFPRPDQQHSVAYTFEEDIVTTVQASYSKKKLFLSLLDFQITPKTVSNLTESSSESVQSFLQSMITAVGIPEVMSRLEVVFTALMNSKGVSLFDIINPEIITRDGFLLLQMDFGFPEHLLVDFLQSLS
Description: CETP in vitro assay (fluorometric assay, Roar Biomedical; cholesterol ester transfer from HDL to LDL). In kind it is biochemical. As to conditions: recombinant human CETP from CHO cells; 3 hours at 37° C.; fluorescence 485/535 nm; compound concentrations between 1 nM and 30 μM; read-out: IC50 values for inhibition of CETP. In outline:
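Fluorometric transfer assay using donor and acceptor particles with recombinant human CETP partially purified from conditioned medium of CETP-expressing CHO cells. Compound in DMSO incubated 3 hours at 37° C; fluorescence Ex 485/Em 535 nm. IC50 from dose-effect curves over 1 nM to 30 μM.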

The values below come from patent US9029544B2, “Tricyclic pyridine derivatives, medicaments containing such compounds, their use and process for their preparation” (Boehringer Ingelheim International GmbH, priority 2010, dated 2015).

The structures appear in SMILES notation.

As a reminder, the IC50 is the point on the concentration scale where inhibition reaches its midpoint. On to `CC(C)c1nc2c(c3c1[C@@H](c1ccc(C(F)(F)C(F)(F)F)cc1)OC31CCCC1)[C@@H](O)CC(C)(C)C2` [1(65), (3′R,9′S)-4′-isopropyl-7′,7′-dimethyl-3′-(4-(perfluoroethyl)phenyl)-6′,7′,8′,9′-tetrahydro-3′H-spiro[cyclopentane-1,1′-furo[3,4-c]quinolin]-9′-ol], for which the IC50 was 83 nM.
For the molecule `CC(C)c1nc2c(c3c1[C@H](c1ccc(C(F)(F)F)cn1)OC31CCC(F)(F)CC1)[C@@H](O)CC(C)(C)C2` (single isomer, unassigned) [7 (Diastereomer 2), (3′R,9′S)-4,4-difluoro-4′-isopropyl-7′,7′-dimethyl-3′-(5-(trifluoromethyl)pyridin-2-yl)-6′,7′,8′,9′-tetrahydro-3′H-spiro[cyclohexane-1,1′-furo[3,4-c]quinolin]-9′-ol], the half-inhibitory concentration (IC50) was 1150 nM.
For `O[C@H]1CC2(CCC2)[C@@H](O)c2nc(C3CCOCC3)c3c(c21)C1(CCOCC1)O[C@@H]3c1ccc(C(F)(F)F)cn1` [6(1), (3S,6R,9S)-7,7-(propan-1,3-diyl)-4-(tetrahydro-2H-pyran-4-yl)-3-(5-(trifluoromethyl)pyridin-2-yl)-2′,3′,5′,6,6′,7,8,9-octahydro-3H-spiro[furo[3,4-c]quinoline-1,4′-pyran]-6,9-diol] the value was 1220 nM.
Then `CC1(C)C[C@H](O)c2c(nc(C3CCOCC3)c3c2C2(CCCC2)O[C@@H]3c2ccc(S(F)(F)(F)(F)F)cc2)[C@@H]1O` [4(6), (3′R,6′R,9′S)-7′,7′-dimethyl-4′-(tetrahydro-2H-pyran-4-yl)-3′-(4-(pentafluorosulfanyl)phenyl)-6′,7′,8′,9′-tetrahydro-3′H-spiro[cyclopentane-1,1′-furo[3,4-c]quinoline]-6′,9′-diol], with 19 nM.
Regarding `CC(C)c1nc2c(c3c1[C@H](c1ccc(C(F)(F)F)cc1)OC31CCCC1)[C@H](O)CC(C)(C)C2` (single isomer, unassigned) [2 (Diastereomer 1), (3′S,9′R)-4′-isopropyl-7′,7′-dimethyl-3′-(4-(trifluoromethyl)phenyl)-6′,7′,8′,9′-tetrahydro-3′H-spiro[cyclopentane-1,1′-furo[3,4-c]quinolin]-9′-ol], the IC50 was found to be 699 nM.
For `CC(C)c1nc2c(c3c1[C@@H](c1ccc(S(F)(F)(F)(F)F)cc1)OC31CCOCC1)[C@@H](O)CC1(CCC1)[C@H]2O` [4(8), (3R,6R,9S)-4-isopropyl-7,7-(propan-1,3-diyl)-3-(4-(pentafluorosulfanyl)phenyl)-2′,3′,5′,6,6′,7,8,9-octahydro-3H-spiro[furo[3,4-c]quinoline-1,4′-pyran]-6,9-diol], the IC50 came to 14 nM.
Then `CC(C)c1nc2c(c3c1[C@@H](c1ccc(C(C)(C)C)cc1)OC31CCCC1)[C@@H](O)CC(C)(C)[C@@H]2O` [4(4), (3′R,6′S,9′S)-3′-(4-tert-butylphenyl)-4′-isopropyl-7′,7′-dimethyl-6′,7′,8′,9′-tetrahydro-3′H-spiro[cyclopentane-1,1′-furo[3,4-c]quinoline]-6′,9′-diol], with 207 nM.
As to `CC(C)c1nc2c(c3c1[C@@H](c1ccc(C(F)(F)F)cn1)OC31CCOCC1)[C@@H](O)CC(C)(C)[C@H]2O` [5(4), (3S,6R,9S)-4-isopropyl-7,7-dimethyl-3-(5-(trifluoromethyl)pyridin-2-yl)-2′,3′,5′,6,6′,7,8,9-octahydro-3H-spiro[furo[3,4-c]quinoline-1,4′-pyran]-6,9-diol], the 50% inhibitory concentration (IC50) was 183 nM.
For `CC(C)c1nc2c(c3c1[C@@H](c1ccc(C(F)(F)F)cc1F)OC31CCOCC1)[C@@H](O)CC1(CCC1)C2` [1(51), (3S,9S)-3-(2-fluoro-4-(trifluoromethyl)phenyl)-4-isopropyl-7,7-(propan-1,3-diyl)-2′,3′,5′,6,6′,7,8,9-octahydro-3H-spiro[furo[3,4-c]quinoline-1,4′-pyran]-9-ol] the value was 13 nM; for `CC(C)c1nc2c(c3c1[C@H](c1ccc(C(F)(F)F)c(F)c1)OC31CCOCC1)[C@@H](O)CC(C)(C)C2` [1(54), (3S,9S)-3-(3-fluoro-4-(trifluoromethyl)phenyl)-4-isopropyl-7,7-dimethyl-2′,3′,5′,6,6′,7,8,9-octahydro-3H-spiro[furo[3,4-c]quinoline-1,4′-pyran]-9-ol], 1690 nM.
Consider `CC1(C)C[C@H](O)c2c(nc(C3CCOCC3)c3c2C2(CCOCC2)O[C@@H]3c2ccc(C(F)(F)F)c(C#N)c2)[C@@H]1O` [4(9), 5-((3R,6R,9S)-6,9-dihydroxy-7,7-dimethyl-4-(tetrahydro-2H-pyran-4-yl)-2′,3′,5′,6,6′,7,8,9-octahydro-3H-spiro[furo[3,4-c]quinoline-1,4′-pyran]-3-yl)-2-(trifluoromethyl)benzonitrile], for which the IC50 amounted to 147 nM.
Consider `CC(C)c1nc2c(c3c1[C@@H](c1ccc(S(F)(F)(F)(F)F)cc1)OC31CCOCC1)[C@@H](O)CC(C)(C)C2` [1(68), (3R,9S)-4-isopropyl-7,7-dimethyl-3-(4-(pentafluorosulfanyl)phenyl)-2′,3′,5′,6,6′,7,8,9-octahydro-3H-spiro[furo[3,4-c]quinoline-1,4′-pyran]-9-ol], for which the IC50 was 24 nM.
For the molecule `O[C@H]1CC2(CCC2)Cc2nc(C3CCOCC3)c3c(c21)C1(CCOCC1)O[C@@H]3c1ccc(C(F)(F)F)cn1` [1(75), (3S,9S)-7,7-(propan-1,3-diyl)-4-(tetrahydro-2H-pyran-4-yl)-3-(5-(trifluoromethyl)pyridin-2-yl)-2′,3′,5′,6,6′,7,8,9-octahydro-3H-spiro[furo[3,4-c]quinoline-1,4′-pyran]-9-ol], the concentration for half-maximal inhibition (IC50) was 288 nM.
With `CC1(C)C[C@H](O)c2c(nc(C3CCOCC3)c3c2C2(CCOCC2)O[C@@H]3c2ccc(C(F)(F)F)nc2)[C@@H]1O` [6(2), (3R,6R,9S)-7,7-dimethyl-4-(tetrahydro-2H-pyran-4-yl)-3-(6-(trifluoromethyl)pyridin-3-yl)-2′,3′,5′,6,6′,7,8,9-octahydro-3H-spiro[furo[3,4-c]quinoline-1,4′-pyran]-6,9-diol], the IC50 stood at 1540 nM.
On to `CC(C)c1nc2c(c3c1[C@@H](c1ccc(C(F)(F)F)c(F)c1)OC31CCOCC1)[C@@H](O)CC(C)(C)C2` [1(53), (3R,9S)-3-(3-fluoro-4-(trifluoromethyl)phenyl)-4-isopropyl-7,7-dimethyl-2′,3′,5′,6,6′,7,8,9-octahydro-3H-spiro[furo[3,4-c]quinoline-1,4′-pyran]-9-ol], for which the IC50 was determined as 23 nM.
